For series [1] the following is noted: water, pH 7.5, 37° C.; cited from earlier work.
Another series deals with DNA. The following applies: from previous reports; cited from earlier work.
Series [2] concerns match binding sites (5′-WGCWGCW-3′) on a 241 bp restriction fragment derived from the HIV-1 promoter region. Kind of series: Quantitative DNase I footprint titration. The following applies: for equilibrium association constant Ka: 22° C., pH 7.0. The protocol: Jones, K. A. & Peterlin, B. M. (1994), Annual Review of Biochemistry 63, 717-743. Left, storage phosphor autodiograms of 8% denaturing polyacrylamide gels used to separate the fragments generated by DNase I digestion. All reactions contained 20,000 cpm restriction fragment, 10 mM Tris.HCl (pH 7.0), 10 mM KCl, 10 MM MgCl2 and 5 mM CaCl and were performed at 22° C. Lane 1, intact DNA; lane 2, A-specific reaction; lane 3, G-specific reaction; lane 4, DNase I standard; lanes 5-17, 1 pM, 2 pM, 5 pM, 10 pM, 20 pM, 50 pM, 100 pM, 200 pM, 500 pM, 1 nM, 2 nM, 5 nM, 10 nM, respectively. The 5′-AGCTGCT-3′ (A), 5′-TGCAGCA-3′ (B), and 5′-TGCTGCT-3′ (E) match sites are shown in boxes on the right side of the autoradiogram (SEQ ID NO:4).
FIG. 5(b) depicts data from quantitative DNase I footprint titration experiments for ImPy-β-ImPy-(R)^CHL(OH)γ-ImPy-βImPy-β-Dp (3) binding to the 5′-AGCTGCT-3′ (A) and 5′-TGCAGCA-3′ sites (B). θnorm points were obtained using storage phosphor autoradiography and processed as described in the experimental section The data for the binding of 3 to 5′-AGCTGCT-3′ is indicated by red circles and binding to 5′-TGCAGCA-3′ by blue circles. The solid curves are best-fit Langmuir binding titration isotherms obtained from a nonlinear least-squares algorithm eq 2 (n=1).
All reactions were executed in a total volume of 400 μl. […]
Data from the footprint titration gels were obtained using a Molecular Dynamics 400S PhosphorImager followed by quantitation using ImageQuant software (Molecular Dynamics). […] The apparent fractional occupancy (θapp) of the sites were calculated using the equation: [formula] […]
where [L]tot is the total polyamide concentration, Ka is the equilibrium association constant, and θmin and θmax are the experimentally determined site saturation values when the site is unoccupied or saturated, respectively. […]

For series [3] the test system is unchanged. The following applies: sequence 5′-WGCWGCW-3′ in the HIV promoter; literature value; cited from earlier work.
The subject of a further series is HIV. The following applies: cell culture; cited from earlier work.

Turning to `O=C(O)CCCc1ccc(N(CCCl)CCCl)cc1` [chlorambucil, 4-[bis(2-chloroethyl)amino]benzene butanoic acid], the “half life for hydrolysis of the bis(dichloroethylamino)benzene moiety” value in series [1] is recorded as “approximately 1.3 hours”.

As for “ImImPyPy-(R)^H^2^Nγ-ImPyPyPy-β-Dp [polyamide 1′]”, on DNA, the binding affinity entry is recorded as “subnanomolar”.

Consider “ImPy-β-ImPy-(R)^CHL(OH)γ-ImPy-β-ImPy-β-Dp [compound 3]”, for which the “equilibrium association constant Ka” value in series [2] (match site 5′-AGCTGCT-3′) was 1.6±0.7×10^10 M^−1; in series [2] (match site 5′-TGCAGCA-3′), 1.3±0.7×10^10 M^−1. Also, the “affinities for double base pair mismatch sites, fold lower than for the match sites” value in series [2] (mismatch sites 5′-TGTCGCC-3′ and 5′-AGCAGCTC-3′) is on record as greater than 100 fold.

With “ImPy-β-ImPy-γ-ImPy-β-ImPy-β-Dp [polyamide 1]”, the “binding affinity Ka of unsubstituted polyamide” value in series [3] was 2e+10 M⁻¹. Moreover, the “inhibition of HIV replication” value with HIV is “inhbit HIV replication”.

(Values after patent US6559125B1, “Polyamide-alkylator conjugates and related products and method” (priority 2000, dated 2003).)
